Each structure is given as a SMILES string. Read-outs that look alike come from different tables or passages of the source.

One assay deals with NF-κB. Nature of the assay: NF-κB assay: THP1-NF-κB-LUC cells, LPS-stimulated secreted luciferase. The settings on record: THP1-NF-κB-LUC cells, read-out: IC50 (NF-κB assay). The assay is classed as cell-based. The procedure, abridged:
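THP1-NF-κB-LUC cells (25k/well) were pretreated with compounds for 2 h, then stimulated with LPS (10 ng/mL) for 18 h. Secreted luciferase was measured and normalized to vehicle, and IC50 was fitted from the concentration series.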

In the next assay the test system is TNF release. Nature of the assay: TNF assay: TNF release from LPS-stimulated human PBMCs (TNF ELISA). The assay is classed as cell-based. Conditions: PBMC, read-out: IC50 (TNF assay). The method in brief: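 Human PBMCs at 10k/well pretreated with compound dilutions 2 h, then stimulated with LPS (10 ng/mL) for 18 h. TNF in supernatants quantified by ELISA; IC50 for inhibition of TNF release fitted from concentration–response.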

[1] abbreviates: LPS-stimulated human PBMCs, TNF ELISA.
[2] abbreviates: compounds 2 hours before LPS (10 ng/mL) for 18 hours, secreted luciferase.
Setting [3] is: human PBMCs, compounds 2 hours before LPS (10 ng/ml) for 18 hours, supernatant TNF ELISA.

As to `CCC[S+]([O-])c1sc(-c2cccnc2)nc1S(=O)(=O)c1ccc(Cl)cc1` (stereo not drawn) [BC19724], the half-inhibitory concentration (IC50) in the assay with NF-κB (LPS-stimulated) and in the assay on TNF release (setting [1]) was 1000 to 10000 nM each time.
Consider `CC(C)[S+]([O-])c1sc(-c2cccnc2)nc1S(=O)(=O)c1ccc(Cl)cc1` (stereo not drawn) [BC19725], for which the IC50 with NF-κB (LPS-stimulated) and in the assay with TNF release (setting [1]) was > 10000 nM each time.
Turning to `CC(C)Sc1snc(-c2ccc(F)cc2)c1S(=O)(=O)c1ccc(Cl)cc1` [BC19726], the half-maximal inhibitory concentration (IC50) in the assay on NF-κB (LPS-stimulated) and in the assay on TNF release (setting [1]) was > 10000 nM in each case.
For the molecule `CC(C)[S+]([O-])c1snc(-c2ccc(F)cc2)c1S(=O)(=O)c1ccc(Cl)cc1` (stereo not drawn) [BC19727], the IC50 in the assay on NF-κB (LPS-stimulated) and in the assay with TNF release (setting [1]) was 1000 to 10000 nM each time.
Regarding `CC(C)S(=O)(=O)c1snc(-c2ccc(F)cc2)c1S(=O)(=O)c1ccc(Cl)cc1` [BC19728], the IC50 with NF-κB (LPS-stimulated) was > 10000 nM; in the assay with TNF release (setting [1]) it was 1000 to 10000 nM.
For the molecule `CC1Oc2cc(S(=O)(=O)Nc3ccc(C#N)cc3)c(Cl)cc2NC1=O` (stereo not drawn) [BC19729], the concentration for half-maximal inhibition (IC50) in the assay on NF-κB (setting [2]) is 100 to 1000 nM; in the assay on TNF release (setting [3]), > 10000 nM.
The matching figures for `CC1Oc2c(cc(Cl)cc2S(=O)(=O)Nc2ccc(C#N)cc2)NC1=O` (stereo not drawn) [BC19730]: < 100 nM and > 10000 nM.
In the same order, the values of `CCC1Oc2cc(S(=O)(=O)Nc3ccc(F)cc3)c(Cl)cc2NC1=O` (stereo not drawn) [BC19731] are 100 to 1000 nM and > 10000 nM.
In the same order, the values of `CCC1Oc2c(cc(Cl)cc2S(=O)(=O)Nc2ccc(F)cc2)NC1=O` (stereo not drawn) [BC19732] are < 100 nM and 1000 to 10000 nM.
With `CCC1Oc2cc(S(=O)(=O)Nc3ccc(OC(F)(F)F)cc3)c(Cl)cc2NC1=O` (stereo not drawn) [BC19733], the values for the concentration for half-maximal inhibition (IC50) in the assay with NF-κB (setting [2]) and in the assay with TNF release (setting [3]) were < 100 nM and > 10000 nM, respectively.
In the same order, the values of `CCC1Oc2c(cc(Cl)cc2S(=O)(=O)Nc2ccc(OC(F)(F)F)cc2)NC1=O` (stereo not drawn) [BC19734] are < 100 nM and > 10000 nM.
The matching figures for `CCC1Oc2cc(S(=O)(=O)Nc3ccc(F)c(F)c3)c(Cl)cc2NC1=O` (stereo not drawn) [BC19735]: < 100 nM and > 10000 nM.
In the same order, the values of `CCC1Oc2c(cc(Cl)cc2S(=O)(=O)Nc2ccc(F)c(F)c2)NC1=O` (stereo not drawn) [BC19736] are < 100 nM and > 10000 nM.
For `CCC1Oc2cc(S(=O)(=O)Nc3ccccc3)c(Cl)cc2NC1=O` (stereo not drawn) [BC19737], the figures for the IC50 with NF-κB (setting [2]) and with TNF release (setting [3]) were 100 to 1000 nM and > 10000 nM, respectively.
The matching figures for `CCC1Oc2c(cc(Cl)cc2S(=O)(=O)Nc2ccccc2)NC1=O` (stereo not drawn) [BC19738]: < 100 nM and > 10000 nM.
For the molecule `CCC1Oc2cc(S(=O)(=O)Nc3ccc(Cl)cc3)c(Cl)cc2NC1=O` (stereo not drawn) [BC19739], the half-inhibitory concentration (IC50) with NF-κB (setting [2]) is < 100 nM; with TNF release (setting [3]), > 10000 nM.
For the molecule `CCC1Oc2c(cc(Cl)cc2S(=O)(=O)Nc2ccc(Cl)cc2)NC1=O` (stereo not drawn) [BC19740], the half-inhibitory concentration (IC50) in the assay on NF-κB (setting [2]) is < 100 nM; with TNF release (setting [3]), > 10000 nM.
The matching figures for `CCc1ccc(NS(=O)(=O)c2cc3c(cc2Cl)NC(=O)C(CC)O3)cc1` (stereo not drawn) [BC19741]: < 100 nM and > 10000 nM.
The matching figures for `CCc1ccc(NS(=O)(=O)c2cc(Cl)cc3c2OC(CC)C(=O)N3)cc1` (stereo not drawn) [BC19742]: < 100 nM and 1000 to 10000 nM.
Consider `CCC1Oc2c(cc(Cl)cc2S(=O)(=O)Nc2ccc(OC)c(Cl)c2)NC1=O` (stereo not drawn) [BC19744], for which the IC50 was < 100 nM in the assay with NF-κB (setting [2]) and 1000 to 10000 nM in the assay on TNF release (setting [3]).
The matching figures for `CCC1Oc2c(cc(Cl)cc2S(=O)(=O)Nc2ccc(C)c(Cl)c2)NC1=O` (stereo not drawn) [BC19746]: < 100 nM and > 10000 nM.
For the molecule `CCC1Oc2c(cc(Cl)cc2S(=O)(=O)Nc2ccc(F)cc2F)NC1=O` (stereo not drawn) [BC19748], the 50% inhibitory concentration (IC50) with NF-κB (setting [2]) is < 100 nM; in the assay on TNF release (setting [3]), > 10000 nM.
In the same order, the values of `CCc1cccc(NS(=O)(=O)c2cc3c(cc2Cl)NC(=O)C(CC)O3)c1` (stereo not drawn) [BC19749] are 100 to 1000 nM and > 10000 nM.
As for `CCc1cccc(NS(=O)(=O)c2cc(Cl)cc3c2OC(CC)C(=O)N3)c1` (stereo not drawn) [BC19750], the IC50 in the assay with NF-κB (setting [2]) was < 100 nM; in the assay on TNF release (setting [3]), > 10000 nM.
The matching figures for `CCC1Oc2cc(S(=O)(=O)Nc3cccc(Cl)c3)c(Cl)cc2NC1=O` (stereo not drawn) [BC19751]: 100 to 1000 nM and > 10000 nM.
For `CCC1Oc2c(cc(Cl)cc2S(=O)(=O)Nc2cccc(Cl)c2)NC1=O` (stereo not drawn) [BC19752], the figures for the IC50 in the assay with NF-κB (setting [2]) and in the assay with TNF release (setting [3]) were < 100 nM and > 10000 nM, respectively.
In the same order, the values of `CCC1Oc2cc(S(=O)(=O)Nc3ccc(C)cc3)c(Cl)cc2NC1=O` (stereo not drawn) [BC19753] are < 100 nM and > 10000 nM.
As for `CCC1Oc2c(cc(Cl)cc2S(=O)(=O)Nc2ccc(C)cc2)NC1=O` (stereo not drawn) [BC19754], the IC50 in the assay on NF-κB (setting [2]) is < 100 nM; with TNF release (setting [3]), 1000 to 10000 nM.
The matching figures for `CCC1Oc2cc(S(=O)(=O)Nc3ccc(F)cc3Cl)c(Cl)cc2NC1=O` (stereo not drawn) [BC19755]: 1000 to 10000 nM and > 10000 nM.
In the same order, the values of `CCC1Oc2c(cc(Cl)cc2S(=O)(=O)Nc2ccc(F)cc2Cl)NC1=O` (stereo not drawn) [BC19756] are < 100 nM and > 10000 nM.

By IC50 is commonly meant the concentration that gives 50% inhibition.

Source of the values: patent US12606528B2, “Methods and materials for inhibiting NF-kB activity” (University of Pittsburgh - Of the Commonwealth System of …, priority 2019, dated 2026).
